A melting point compilation (Tetko et al.; mined from patent text by program, amines drawn as free bases though some values may be those of a salt)

melting point | SMILES
158 to 160 °C | C[C@@H](n1ncnn1)[C@](O)(Cn1ccnc1)c1ccc(F)cc1F
101 to 102 °C | COC(=O)COc1ccc2cc(-c3ccc(-c4ccccc4)n3Cc3ccccc3)ccc2c1
138 °C | O=C1CCC(c2ccccc2F)(c2ccccc2F)[C@@H]2CN(Cc3ccccc3)C[C@H]12 (racemic)
252 to 253 °C | COc1ccc(-c2ccc(C(=O)O)cn2)cc1
206 to 208 °C | CN1CC[C@@H](c2c(O)cc(O)c3c(=O)cc(-c4ccccc4F)oc23)[C@@H]1CO
174 to 176 °C | CC(C)c1ccc2c(c1)C(c1ccc(Cl)c(Cl)c1)Cc1cnc(N)nc1-2 (stereo not given)
94 to 96 °C | COc1cc(O)cc(Cl)c1
119 to 121 °C | CC(=O)c1cn(C)c2ccc(C)cc12
205 to 207 °C | COc1ccccc1C(=O)Nc1cc(C(=O)NCc2ccccc2)ccn1
136 to 139 °C | NS(=O)(=O)c1ccccc1C1CO1 (stereo not given)
44 to 46 °C | CC[Si](CC)(CC)c1cccc(-c2ccccc2)c1O
232 to 235 °C | O=C(Nc1ncco1)C1c2ccccc2Oc2ccccc21
166 to 167 °C | Cc1nc(NCC2CC2)c2nnn(-c3ccc(C(C)C)cc3Br)c2n1
174 to 175 °C | CS(=O)(=O)c1ccc(-c2c(-c3ccc(F)cc3)c(OCc3ccccc3)nn2Cc2ccccc2)cc1
181 to 184 °C | Nc1nc(=O)n(CCCCI)cc1F
300 °C | COC(=O)Nc1nc2cc(C(O)c3ccc(F)cc3)ccc2[nH]1 (stereo not given)
220 to 222 °C | Cc1cc2cc(C(=O)O)ccc2s1
287 to 290 °C | O=C1c2cc(F)cc(F)c2-n2c1nc1ccccc1c2=O
> 250 °C | CC(Nc1nc(-c2ccc([N+](=O)[O-])cc2)nc2[nH]ccc12)c1ccccc1 (stereo not given)
183 to 185 °C | CC(=O)C1CCC2C3CCC4=CC(=O)C=CC4(C)C3CCC12C (stereo not given)
124 °C | CCOCCO[C@@H]1c2ccn3c(C)c(C)nc3c2N[C@H](c2ccccc2)[C@H]1OC(=O)OCCCC(Cl)CC (stereo not given in full)
233 to 235 °C | COc1cc2nc(N)nc(-c3cccc(OC(F)(F)F)c3)c2cc1OC
188 to 190 °C | CC(C)(C)OC(=O)N1CC2CN(C(N)=S)CC2C1 (stereo not given)

melting point | SMILES
153 to 154 °C | CCOC(=O)C1(O)C=CC(N=Nc2ccccc2)=CC1 (stereo not given)
120 °C | N#CCc1coc2ccc(Br)cc12
128 to 129 °C | CC(=O)NCC1CN(c2ccc(N3CCN(C(=O)COC(=O)CN4CCN(C)CC4)CC3)c(F)c2)C(=O)O1 (stereo not given)
77 to 78 °C | CCCC(=O)Cc1cc(OC)ccc1NC(=O)OC(C)(C)C
218 to 220 °C | CC(C)NC(=O)c1cccc(-c2ccnc3c(C(=O)c4cccs4)cnn23)c1
230 to 233 °C | Cc1c(N2CC[C@@H](C3(N)CC3)C2)ccc2c(=O)c(C(=O)O)cn(C3CC3)c12
235 to 240 °C | CC(Oc1ccc(OC(C)C(=O)O)cc1)C(=O)O (stereo not given)
60 to 61 °C | COC(=O)Oc1c(Cl)cc(Cl)cc1[N+](=O)[O-]
240 to 241 °C | Cn1c(=O)c(-c2c(Cl)cccc2Cl)cc2cnc(Nc3ccc4c(c3)OCO4)nc21
95 to 97 °C | CCCNC(=O)C1(C/C=C/c2ccccc2)c2ccccc2-c2ccccc21
154 to 156 °C | COc1ccc2c(c1)c1c(n2Cc2ccccc2)CCCC1C(N)=O (stereo not given)
84 °C | COc1ccc(CN(CCN(C)CCNC(=O)NCCSCc2csc(NC(=N)N)n2)c2ccccn2)cc1
192 to 194 °C | CC(C)(O)CCOc1ccc(/C=C/C(=O)O)c(Oc2ncc(C(F)(F)F)cc2Cl)c1
86.2 to 87 °C | COCCOC1(S(C)=O)C=CC=C(C(=O)c2cnoc2C2CC2)C1Br (stereo not given)
227 to 229 °C | CCOC(=O)c1ccc(COCc2csc3nc(C(=O)NCc4cccc(CS(C)(=O)=O)c4)[nH]c(=O)c23)cc1
235 °C | COc1ccc(-c2cc3ccc(C(=O)O)cc3o2)cc1C(C)(C)C
118 to 121 °C | CC(C)C(=O)Nc1ccc(OCC(O)CNC(C)(C)C)c(C#N)c1 (stereo not given)
133 °C | COC(=O)c1scc(-c2ccccc2)c1-c1ccc(S(=O)O)c(F)c1
223 to 225 °C | CCc1nn(Cc2ccccn2)c2c(=O)[nH]c(-c3cc(S(C)(=O)=O)ccc3OCC(C)C)nc12
181 to 183 °C | CC1CN(c2cc3c(c(N)c2F)c(=O)c(C(=O)O)cn3C2CC2)CCN1 (stereo not given)
110 to 111 °C | CCn1c(SCc2ccccn2)nc2ccccc2c1=O
165 °C | Cc1ccc2ncccc2c1C(=O)NCC1CCCCC1
97 to 99 °C | O=[N+]([O-])c1ccc(-c2ccc(CCl)o2)cc1

melting point | SMILES
159 to 160 °C | Cc1nc(N2C[C@@H](C)N(Cc3ccc(F)cc3)C2=O)sc1C(=O)NCc1cc(F)cc(F)c1
> 230 °C | CSc1nn2c(N3CCN(c4ccccc4)CC3)cc(C)nc2c1S(=O)(=O)c1ccccc1
69 to 71 °C | Nc1ccccc1CC1NCCc2ccccc21 (stereo not given)
173 to 175 °C | O=C(CBr)Nc1c(Cl)cccc1C(=O)O
233 to 235 °C | Cc1[nH]c2cc3c(cc2c1-c1ccccc1)C(C)(C)C=N3
206 to 207 °C | CCOC(=O)c1cn2c(cc(Cl)c3ccc(Br)cc32)n1
91 to 92 °C | COc1cc([N+](=O)[O-])c(C)cc1Br
85 to 86 °C | N#Cc1ccc(Cl)cc1OC[C@@H]1CO1
212 °C | CNc1ccc(C2CC(=O)N(C)C2C(O)c2ccc(-c3ccccc3)s2)cc1 (stereo not given)
221 to 223 °C | CCc1nnc2c(OC)nc3cc(Cl)ccc3n12
104 to 107 °C | CC(C#N)(Sc1nc2ccccc2s1)c1ccc(C(=O)c2cccs2)cc1 (stereo not given)
166 °C | CNC(=S)NCCN1CCCCC1
110 to 112 °C | O=C1C(CCO)Oc2ccc(F)cc2N1Cc1cccc([N+](=O)[O-])c1 (stereo not given)
165 °C | OCc1ccc(-c2nn(Cc3ccccc3)c3ncncc23)o1
59 to 61 °C | COC(=O)CCc1ccc(O)c(C(C)(C)C)c1
153 to 155 °C | Cc1ccc(C(=O)c2ccc(Cc3c(Cl)cc(N)cc3Cl)cc2)cn1
235 to 236 °C | COC(=O)C=Cc1c(C(=O)OC)c2c(n1C)C(=O)C=C(OC)C2=O
110 to 111 °C | Cc1ccc(-n2cc(C(=O)O)c(=O)c3cc(F)c(F)c(F)c32)cc1
140 to 146 °C | Cc1cc(=O)c(C(=O)Oc2ccccc2)nn1-c1ccc(Cl)cc1
304 to 307 °C | O=S1(=O)N=CN(C2CC2)c2cc(I)ccc21
197 to 199 °C | COC(=O)c1nc2cc(C)cc(Cl)c2c(O)c1C(=O)OC
142 to 144 °C | CCCN(c1c2c(nc3ccccc13)CCCC2)n1cc(C)c2ccccc21
252 to 254 °C | COc1ccc2c(=O)[nH]nc(C)c2c1

SMILES | melting point
CCCNC1CCC(O)CC1 (stereo not given) | 20 °C
CC(C)N1CCN(c2ccc(Br)cn2)CC1 | 76 to 78 °C
Nc1ccc(N2CCc3ccncc3C2)cc1 | > 220 °C
N#Cc1ccc(N2C[C@@H]3[C@H](O)CCN3C2=O)c2ccccc12 | 226 to 228 °C
CCCC12CCC3C4CCC(=O)C=C4CCC3C1CCC2O (stereo not given) | 126 to 127 °C
CCc1c2c(nc3ccccc13)-c1cc3c(c(=O)n1C2)COC(=O)CC3(O)CC (stereo not given) | > 280 °C
